pKi: −log10 of the molar value.
Assays:
[1] = target: T1, Trypsin (Bos taurus, UniProt P00760); experiment: Trypsin selectivity; type: biochemical
T1 construct: gene PRSS1
T1 sequence (P00760 24-246): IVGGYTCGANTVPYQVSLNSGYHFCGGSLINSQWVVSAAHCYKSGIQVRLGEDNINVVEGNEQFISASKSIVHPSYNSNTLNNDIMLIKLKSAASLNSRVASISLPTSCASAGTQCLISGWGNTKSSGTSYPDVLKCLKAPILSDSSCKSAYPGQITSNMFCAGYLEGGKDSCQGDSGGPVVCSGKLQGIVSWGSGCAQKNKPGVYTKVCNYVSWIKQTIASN
Method: To characterize the selectivity of boronic acids 1 to 5, they were assayed against AChE, the target of OP and carbamate insecticides (Table 1) as well as trypsin and bacterial AmpC β-lactamase. […] The toxicity of the hits against two human cell lines was further assessed.
To characterize the selectivity of boronic acids 1 to 5, they were assayed against the target of OP insecticides, AChE, as well as trypsin and bacterial AmpC β-lactamase (Table 1). AChE and αE7 are homologous, sharing the α/β-hydrolase fold and the same catalytic machinery, however the topology of their binding pockets is dissimilar (Jackson, C. J. et al. Structure and function of an insect α-carboxylesterase (αEsterase7) associated with insecticide resistance. Proc. Natl. Acad. Sci. U.S.A. 110, 10177-82 (2013) and Correy, G. J. et al. Mapping the Accessible Conformational Landscape of an Insect Carboxylesterase Using Conformational Ensemble Analysis and Kinetic Crystallography. Structure 24, 1-11 (2016).). Both trypsin and AmpC β-lactamase contain an activated serine nucleophile and oxyanion hole, however trypsin contains a serine-histidine-aspartic acid (Hedstrom, L. Serine protease mechanism and specificity. Chem. Rev. 102, 4501-4523 (2002).) while AmpC β-lactamase contains a serine-tyrosine-lysine catalytic triad (Dubus, A., et al. The roles of residues Tyr150, Glu272, and His314 in class C β-lactamases. Proteins Struct. Funct. Genet. 25, 473-485 (1996).).

[2] = tested on: Ostrinia nubilalis (European corn borer); experiment: Efficacy of chlorpyrifos-ethyl with boronic acids on European corn borer on corn leaves; type: in vivo
Method: (§1) Treatments were performed by spraying a volume of mixture corresponding to 200 l/ha. 4 boxes/condition.
(§2) Drying 1 h at 20° C.; Deposit of three leaf fragments per box on water agar (4 box/condition); Infection of each leaf fragment with 4 Ostrinia nubilalis (12 larvae/box); Incubation 18° C./28° C. […] The percentage of mortality was calculated for each assessment times. Statistical analysis of the data was performed with XLSTAT® software (ANOVAs followed by Newman-Keuls tests with a threshold of 5%, see Table below).

[3] = tested on: Ostrinia nubilalis (European corn borer); experiment: CPE combined with boronic acid derivatives on corn leaves; type: in vivo; settings: for toxicity of the boronic acid derivative alone (in words): some larvae death with 3.10 and 3.7 at 6 DAT; for efficacy on addition of the compound compared with CPE used alone (in words): 1 DAT and 3 DAT at the dose of 15.6 g a.i./ha
Method: as §1, §2

[4] = 1 DAT, boronic acid alone 0.2 mg/ml, 12 larvae/box
[5] = 3 DAT, boronic acid alone 0.2 mg/ml, 12 larvae/box
[6] = 6 DAT, boronic acid alone 0.2 mg/ml, 12 larvae/box
[7] = 1 DAT, CPE 2.5 g a.i./ha, boronic acid, where present, 0.2 mg/ml
[8] = 1 DAT, CPE 6.24 g a.i./ha, boronic acid, where present, 0.2 mg/ml
[9] = 1 DAT, CPE 15.6 g a.i./ha, boronic acid, where present, 0.2 mg/ml
[10] = 1 DAT, CPE 39 g a.i./ha, boronic acid, where present, 0.2 mg/ml
[11] = 3 DAT, CPE 2.5 g a.i./ha, boronic acid, where present, 0.2 mg/ml
[12] = 3 DAT, CPE 6.24 g a.i./ha, boronic acid, where present, 0.2 mg/ml
[13] = 3 DAT, CPE 15.6 g a.i./ha, boronic acid, where present, 0.2 mg/ml
[14] = 3 DAT, CPE 39 g a.i./ha, boronic acid, where present, 0.2 mg/ml
[15] = 6 DAT, CPE 2.5 g a.i./ha, boronic acid, where present, 0.2 mg/ml
[16] = 6 DAT, CPE 6.24 g a.i./ha, boronic acid, where present, 0.2 mg/ml
[17] = 6 DAT, CPE 15.6 g a.i./ha, boronic acid, where present, 0.2 mg/ml
[18] = 6 DAT, CPE 39 g a.i./ha, boronic acid, where present, 0.2 mg/ml
[19] = 1 DAT, boronic acid alone 0.2 mg/ml
[20] = 3 DAT, boronic acid alone 0.2 mg/ml
[21] = 6 DAT, boronic acid alone 0.2 mg/ml

## OB(O)c1cc(Br)cc(N2CCCC2)c1 [Compound 3]
[1]
  pKi: < 4.00

## OB(O)c1ccc2ccccc2c1 [Compound 4]
[1]
  pKi: < 5.00

## OB(O)c1cc(Br)cc(N2CCOCC2)c1 [Compound 3.1]
[2]; boronic acid alone 0.2 mg/ml, 1 DAT, 12 larvae/box
  Larvae number, mean: 12
[2]; boronic acid alone 0.2 mg/ml, 3 DAT, 12 larvae/box
  Larvae number, mean: 12
[2]; boronic acid alone 0.2 mg/ml, 6 DAT, 12 larvae/box
  Larvae number, mean: 8.3
[3]; [4]
  Evaluation of Larvae number, Mean: 12
[3]; [5]
  Evaluation of Larvae number, Mean: 12
[3]; [6]
  Evaluation of Larvae number, Mean: 8.3

## Cc1ccc(B(O)O)cc1OCc1ccccc1 [Compound 2]
[1]
  pKi: < 4.00

## Cc1ccc(B(O)O)cc1Br [Compound 1]
[1]
  pKi: < 4.00

## CCOP(=S)(OCC)Oc1nc(Cl)c(Cl)cc1Cl [CPE, Chlorpyrifos-ethyl]
[2]; CPE 2.5, 1 DAT, boronic acid where present 0.2 mg/ml
  Percentage of efficacy: 0%
[2]; CPE 2.5, 3 DAT, boronic acid where present 0.2 mg/ml
  Percentage of efficacy: 0%
[2]; CPE 2.5, 6 DAT, boronic acid where present 0.2 mg/ml
  Percentage of efficacy: 26%
[2]; CPE 2.5 g a.i./ha, 1 DAT, boronic acid where present 0.2 mg/ml
  Larvae number, mean: 12
[2]; CPE 2.5 g a.i./ha, 3 DAT, boronic acid where present 0.2 mg/ml
  Larvae number, mean: 12
[2]; CPE 2.5 g a.i./ha, 6 DAT, boronic acid where present 0.2 mg/ml
  Larvae number, mean: 8
[2]; CPE 6.24, 1 DAT, boronic acid where present 0.2 mg/ml
  Percentage of efficacy: 11%
[2]; CPE 6.24, 3 DAT, boronic acid where present 0.2 mg/ml
  Percentage of efficacy: 16%
[2]; CPE 6.24, 6 DAT, boronic acid where present 0.2 mg/ml
  Percentage of efficacy: 63%
[2]; CPE 6.24 g a.i./ha, 1 DAT, boronic acid where present 0.2 mg/ml
  Larvae number, mean: 10.7
[2]; CPE 6.24 g a.i./ha, 3 DAT, boronic acid where present 0.2 mg/ml
  Larvae number, mean: 9.7
[2]; CPE 6.24 g a.i./ha, 6 DAT, boronic acid where present 0.2 mg/ml
  Larvae number, mean: 4
[2]; CPE 15.6, 1 DAT, boronic acid where present 0.2 mg/ml
  Percentage of efficacy: 40%
[2]; CPE 15.6, 3 DAT, boronic acid where present 0.2 mg/ml
  Percentage of efficacy: 39%
[2]; CPE 15.6, 6 DAT, boronic acid where present 0.2 mg/ml
  Percentage of efficacy: 67%
[2]; CPE 15.6 g a.i./ha, 1 DAT, boronic acid where present 0.2 mg/ml
  Larvae number, mean: 7.3
[2]; CPE 15.6 g a.i./ha, 3 DAT, boronic acid where present 0.2 mg/ml
  Larvae number, mean: 7
[2]; CPE 15.6 g a.i./ha, 6 DAT, boronic acid where present 0.2 mg/ml
  Larvae number, mean: 3.5
[2]; CPE 39, 1 DAT, boronic acid where present 0.2 mg/ml
  Percentage of efficacy: 72%
[2]; CPE 39, 3 DAT, boronic acid where present 0.2 mg/ml
  Percentage of efficacy: 83%
[2]; CPE 39, 6 DAT, boronic acid where present 0.2 mg/ml
  Percentage of efficacy: 88%
[2]; CPE 39 g a.i./ha, 1 DAT, boronic acid where present 0.2 mg/ml
  Larvae number, mean: 3.3
[2]; CPE 39 g a.i./ha, 3 DAT, boronic acid where present 0.2 mg/ml
  Larvae number, mean: 2
[2]; CPE 39 g a.i./ha, 6 DAT, boronic acid where present 0.2 mg/ml
  Larvae number, mean: 1.3
[3]; [7]
  Evaluation of Larvae number, Mean: 12
  Percentage of efficacy: 0%
[3]; [8]
  Evaluation of Larvae number, Mean: 10.7
  Percentage of efficacy: 11%
[3]; [9]
  Evaluation of Larvae number, Mean: 7.3
  Percentage of efficacy: 40%
[3]; [10]
  Evaluation of Larvae number, Mean: 3.3
  Percentage of efficacy: 72%
[3]; [11]
  Evaluation of Larvae number, Mean: 12
  Percentage of efficacy: 0%
[3]; [12]
  Evaluation of Larvae number, Mean: 9.7
  Percentage of efficacy: 16%
[3]; [13]
  Evaluation of Larvae number, Mean: 7
  Percentage of efficacy: 39%
[3]; [14]
  Evaluation of Larvae number, Mean: 2
  Percentage of efficacy: 83%
[3]; [15]
  Evaluation of Larvae number, Mean: 8
  Percentage of efficacy: 26%
[3]; [16]
  Evaluation of Larvae number, Mean: 4
  Percentage of efficacy: 63%
[3]; [17]
  Evaluation of Larvae number, Mean: 3.5
  Percentage of efficacy: 67%
[3]; [18]
  Evaluation of Larvae number, Mean: 1.3
  Percentage of efficacy: 88%

## OB(O)c1cc(Br)cc(Oc2ccccc2)c1 [Compound 3.10, 3-Bromo-5-phenoxyfenylboronic acid]
[3]; 0.2 mg/ml
  toxicity of the boronic acid derivative alone (in words): Absence of significant toxicity
[3]
  efficacy on addition of the compound compared with CPE used alone (in words): increased significantly the efficacy
[3]; [19]
  Percentage of efficacy: 0%
[3]; [20]
  Percentage of efficacy: 0%
[3]; [21]
  Percentage of efficacy: 22%

## OB(O)c1ccc(OCc2ccccc2F)c(Cl)c1 [Compound 5, 3-Chloro-4(2′-fluorobenzyloxy) phenylboronic acid]
[1]
  pKi: < 4.00
[3]; 0.2 mg/ml
  toxicity of the boronic acid derivative alone (in words): Absence of significant toxicity
[3]; [19]
  Percentage of efficacy: 0%
[3]; [4]
  Evaluation of Larvae number, Mean: 12
[3]; [20]
  Percentage of efficacy: 0%
[3]; [5]
  Evaluation of Larvae number, Mean: 12
[3]; [21]
  Percentage of efficacy: 4%
[3]; [6]
  Evaluation of Larvae number, Mean: 10.3

## CC(C)Oc1cc(Br)cc(B(O)O)c1 [Compound 3.7, 3-Bromo-5-isopropoxyphenylboronic acid]
[3]; 0.2 mg/ml
  toxicity of the boronic acid derivative alone (in words): Absence of significant toxicity
[3]
  efficacy on addition of the compound compared with CPE used alone (in words): increased significantly the efficacy
[3]; [19]
  Percentage of efficacy: 3%
[3]; [4]
  Evaluation of Larvae number, Mean: 11.7
[3]; [20]
  Percentage of efficacy: 4%
[3]; [5]
  Evaluation of Larvae number, Mean: 11
[3]; [21]
  Percentage of efficacy: 26%
[3]; [6]
  Evaluation of Larvae number, Mean: 8
